Data from US9302999B2, “Substituted triazoles as herbicides” (E. I. DU PONT DE NEMOURS AND COMPANY, priority 2012, dated 2016).

Legend:
Assay type in all cases: in vivo
[1] = test system: Oilseed Rape; experiment: Test C preemergence: oilseed rape; details: 31 g ai/ha, scale 0 (no effect) to 100 (complete control)
[2] = test system: poinsettia, wild (wild poinsettia, Euphorbia heterophylla); experiment: Test F pre-/postemergence: poinsettia, wild
Method in brief: (§1)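 Visual response scores, 0 meaning no effect and 100 complete control, were assigned against untreated controls 14 to 21 days after treatment. Test chemicals in a surfactant-containing non-phytotoxic solvent were applied preemergence to seeded silt loam soil or postemergence to 2–18 cm plants in peat-based medium.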

[3] = test system: nutsedge, yellow (yellow nutsedge, Cyperus esculentus); experiment: Test F pre-/postemergence: nutsedge, yellow; details: Preemergence
Method in brief: as §1

[4] = test system: bromegrass, downy (downy bromegrass, Bromus tectorum); experiment: Test D pre-/postemergence: bromegrass, downy
Method in brief: (§2)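 Visual 0–100 rating versus untreated controls (0 no effect, 100 complete control), taken 14 to 21 days after treatment in a controlled growth environment. Preemergence: silt loam soil. Postemergence: peat moss/vermiculite medium, plants 2 to 18 cm, 1- to 4-leaf stage. Solvent mixture with surfactant.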

[5] = test system: barley, spring (spring barley, Hordeum vulgare); experiment: Test D pre-/postemergence: barley, spring
Method in brief: as §2

[6] = test system: field violet (Viola arvensis); experiment: Test D pre-/postemergence: field violet
Method in brief: as §2

[7] = test system: radish, wild (wild radish, Raphanus raphanistrum); experiment: Test D pre-/postemergence: radish, wild
Method in brief: as §2

[8] = Preemergence, 16 g ai/ha, scale 0 to 100, 0 no effect, 100 complete control
[9] = Preemergence, 31 g ai/ha, scale 0 to 100, 0 no effect, 100 complete control
[10] = Preemergence, 125 g ai/ha, scale 0 to 100
[11] = Preemergence, 250 g ai/ha, scale 0 to 100
[12] = 16 g ai/ha, scale 0 to 100, 0 no effect, 100 complete control
[13] = 31 g ai/ha, scale 0 to 100, 0 no effect, 100 complete control
[14] = Postemergence, 31 g ai/ha, scale 0 to 100
[15] = Postemergence, 125 g ai/ha, scale 0 to 100
[16] = Postemergence, 31 g ai/ha, scale 0 to 100 (0 no effect, 100 complete control)
[17] = Postemergence, 62 g ai/ha, scale 0 to 100 (0 no effect, 100 complete control)
[18] = Postemergence, 125 g ai/ha, scale 0 to 100, 0 no effect, 100 complete control
[19] = Postemergence, 16 g ai/ha, scale 0 to 100
[20] = Preemergence, 62 g ai/ha, scale 0 to 100

CCCc1nn(-c2ccc(C(F)(F)F)cc2)nc1Oc1ccnc(C(F)(F)F)c1 [Compound 170]
Plant response rating, Oilseed Rape [1]: 95

CCc1nn(-c2ccc(F)c(F)c2)nc1Oc1ccnc(C(F)(F)F)c1 [Compound 171]
Plant response rating, Oilseed Rape [1]: 0
Plant response rating, Poinsettia, Wild [2, 8]: 0
Plant response rating, Poinsettia, Wild [2, 9]: 0
Plant response rating, Poinsettia, Wild [2, 10]: 10
Plant response rating, Poinsettia, Wild [2, 11]: 10
Plant response rating, Nutsedge, Yellow [3, 12]: 0
Plant response rating, Nutsedge, Yellow [3, 13]: 0
Plant response rating, Nutsedge, Yellow ([3]; 125 g ai/ha, scale 0 to 100): 0
Plant response rating, Nutsedge, Yellow ([3]; 250 g ai/ha, scale 0 to 100): 0

CCCc1nn(-c2ccc(F)c(F)c2)nc1Oc1ccnc(C(F)(F)F)c1 [Compound 172]
Plant response rating, Oilseed Rape [1]: 60
Plant response rating, Poinsettia, Wild ([2]; Postemergence, 250 g ai/ha, scale 0 to 100): 100
Plant response rating, Poinsettia, Wild [2, 14]: 80
Plant response rating, Poinsettia, Wild [2, 15]: 100
Plant response rating, Poinsettia, Wild [2, 9]: 20
Plant response rating, Poinsettia, Wild [2, 10]: 50
Plant response rating, Poinsettia, Wild [2, 11]: 98
Plant response rating, Nutsedge, Yellow [3, 13]: 25
Plant response rating, Nutsedge, Yellow ([3]; 125 g ai/ha, scale 0 to 100): 25
Plant response rating, Nutsedge, Yellow ([3]; 250 g ai/ha, scale 0 to 100): 25

CCCc1nn(-c2ccc(F)cc2F)nc1Oc1ccnc(C(F)(F)F)c1 [Compound 179]
Plant response rating, Oilseed Rape [1]: 80

CCc1nn(-c2ccc(C(F)(F)F)c(F)c2)nc1Oc1ccnc(C(F)(F)F)c1 [Compound 183]
Plant response rating, Oilseed Rape [1]: 60

CCOc1nn(-c2ccc(Cl)cc2)nc1Cc1ccnc(C(F)(F)F)c1 [Compound 188]
Plant response rating, Oilseed Rape [1]: 20

CCOc1nn(-c2ccc(F)cc2)nc1Cc1ccnc(C(F)(F)F)c1 [Compound 196, 4-[[5-ethoxy-2-(4-fluorophenyl)-2H-1,2,3-triazol-4-yl]methyl]-2-(trifluoromethyl)pyridine]
Plant response rating: Bromegrass, Downy [4, 16]: 35
Plant response rating: Bromegrass, Downy [4, 17]: 50
Plant response rating: Bromegrass, Downy [4, 18]: 65
Plant response rating, Bromegrass, Downy [4, 19]: 15
Plant response rating, Bromegrass, Downy [4, 8]: 5
Plant response rating, Bromegrass, Downy [4, 9]: 15
Plant response rating, Bromegrass, Downy [4, 20]: 70
Plant response rating, Bromegrass, Downy [4, 10]: 90
Plant response rating: Barley, Spring [5, 16]: 20
Plant response rating: Barley, Spring [5, 17]: 35
Plant response rating: Barley, Spring [5, 18]: 55
Plant response rating, Barley, Spring [5, 19]: 15
Plant response rating, Barley, Spring [5, 8]: 5
Plant response rating, Barley, Spring [5, 9]: 5
Plant response rating, Barley, Spring [5, 20]: 15
Plant response rating, Barley, Spring [5, 10]: 30
Plant response rating, Poinsettia, Wild ([2]; Postemergence, 8 g ai/ha, scale 0 to 100): 75
Plant response rating, Poinsettia, Wild [2, 19]: 85
Plant response rating, Poinsettia, Wild [2, 14]: 95
Plant response rating, Poinsettia, Wild ([2]; Postemergence, 62 g ai/ha, scale 0 to 100): 95
Plant response rating, Poinsettia, Wild [2, 15]: 95
Plant response rating, Poinsettia, Wild ([2]; Preemergence, 8 g ai/ha, scale 0 to 100, 0 no effect, 100 complete control): 0
Plant response rating, Poinsettia, Wild [2, 8]: 50
Plant response rating, Poinsettia, Wild [2, 9]: 50
Plant response rating, Poinsettia, Wild [2, 10]: 75
Plant response rating: Field Violet [6, 16]: 85
Plant response rating: Field Violet [6, 17]: 95
Plant response rating: Field Violet [6, 18]: 100
Plant response rating, Field Violet [6, 19]: 80
Plant response rating, Field Violet [6, 8]: 80
Plant response rating, Field Violet [6, 9]: 95
Plant response rating, Field Violet [6, 20]: 100
Plant response rating, Field Violet [6, 10]: 100
Plant response rating, Nutsedge, Yellow ([3]; 8 g ai/ha, scale 0 to 100, 0 no effect, 100 complete control): 0
Plant response rating, Nutsedge, Yellow [3, 12]: 0
Plant response rating, Nutsedge, Yellow [3, 13]: 0
Plant response rating, Nutsedge, Yellow ([3]; 125 g ai/ha, scale 0 to 100): 75
Plant response rating: Radish, Wild [7, 16]: 100
Plant response rating: Radish, Wild [7, 17]: 100
Plant response rating: Radish, Wild [7, 18]: 100
Plant response rating, Radish, Wild [7, 19]: 65
Plant response rating, Radish, Wild [7, 8]: 50
Plant response rating, Radish, Wild [7, 9]: 20
Plant response rating, Radish, Wild [7, 20]: 70
Plant response rating, Radish, Wild [7, 10]: 100
